Test results: patent US5168102A, “Endocrine manipulation to improve body composition of poultry” (priority 1990, dated 1992)
“And” between values parts separate entries of the source, which are not always exact repeats. Equal values may be shown once. “Also recorded” adds a separate entry of the source.

What was measured:
[1] = Example 1: body composition (proximate analysis of carcass); type: in vivo, broiler cockerels (Ross X Arbor Acre strain)
Excerpt: (§1) The purpose of this study was to determine the effect manipulating blood levels of thyroid hormones and/or growth hormone on growth performance and body composition of broiler chickens. […] Purified natural chicken growth hormone (ncGH) was obtained from the Research and Education Center, Harbor-UCLA Medical Center, Torrance, Calif. […] The premix (200 g) was then used to prepare 50 kg batches of each experimental diet according to the formula for broiler-finisher ration described in Table 1. The diet containing 0.5% PTU was prepared by mixing 250 g of PTU into 49.75 kg of the basal ration (Table 1).
(§2) Broiler cockerels (Ross X Arbor Acre strain) were raised to 3 weeks-of-age in a battery-brooder and then transferred to wire grow-out cages (4 birds/pen) held in two controlled-environment rooms (10 pens/room). Beginning at 3 weeks of age, eight birds (2 pens of 4 birds) were randomly assigned to each of 10 treatments. The chickens were provided the experimental diets and water ad libitum. […] For injection, the ncGH was reconstituted in sterile 0.025M sodium bicarbonate buffer (pH 9.8). The 10 treatments were administered for 21 days (i.e., from 3 to 6 weeks of age).
(§3) Measurement of body weight and feed consumption at weekly intervals allowed calculation of the average daily gain (ADG, g/bird/day), average daily feed consumption (ADFC, g/bird/day) and the feed-to-gain ratio (FIG, kg feed/kg gain) over the 21 day experimental period. Blood samples were taken each week (4, 5, and 6 weeks) just before (pre-injection) and 4 hours post-injection of ncGH. […] At the conclusion of the study, birds were killed and the carcasses frozen for proximate analysis. The frozen carcasses were ground in a meat grinder and aliquots of each ground carcass taken for determination of moisture, protein, fat and ash by established analytical procedures (Official Method of Analysis, Edition 13, W. Horwitz ed., Association of Official Analytical Chemist, Washington, D.C., 1980). Body composition data are presented as a percent of live weight at 6 weeks-of-age. Least squares regression analysis was used to test for significant differences (P<0.05) due treatment.

[2] = Example 2: growth and feed efficiency, dietary T3 and ncGH injection; type: in vivo, broiler cockerels (Ross X Arbor Acre)
Experimental: Forty-eight 3-week-old broiler cockerels (Ross X Arbor Acre) were randomly divided into four treatment groups that contained three pens of four birds. The birds were housed in a controlled-environment room under a 20 hour light/4 hour dark cycle with feed and water provided ad libitum.
The preparation of ncGH used in this study was from the same lot used in Example 1.
Body weights and feed consumption was determined at weekly intervals although the ADG, ADFC and FTG ratio was determined over the 21 day period. […] At the conclusion of the study (6 weeks-of-age), birds were killed and the abdominal fat removed and weighed. The liver and abdominal fat were returned to the carcass which was frozen for proximate analysis as described in […]

[3] = supplemented diets; cited from earlier work
[4] = Example 3: final body weight and relative weights of liver, abdominal fat and muscles; type: in vivo, broiler cockerels
Experimental: Day-old broiler cockerels were randomly assigned to 24 pens (5 birds/pen) in a battery brooder. The total duration of the bird management period lasted from 7 to 8 weeks. Hereafter, the end of the first week of life of the birds is referred to as week no. 1 (i.e. 7 days of life), the end of the second week as week no. 2, etc. At week no. 3, four birds from each pen were transferred to wire grow-out cages. […] 5 to week no. 7 (4 pens/treatment). Body weight and feed consumption were determined at weekly intervals. A 5 ml blood sample was obtained from each bird at week no. 7 and stored at -20° C. until assayed for plasma hormones.
At week no. 7 (49 days-of-age), one-half of the birds (8 birds/treatment) were killed for measurement of the abdominal fat pad and liver weights. The muscles were removed, weighed, frozen in liquid N2 and stored at -20° C. until analyzed. At 51 days-of-age, groups of 4 birds per treatment were given a subcutaneous infusion of 4 μCi/Kg of 14C-L-tyrosine emulsified in sesame seed oil and immediately placed in metabolism cages. The expired CO2 was trapped in 15 ml of scrubbing solution (1:2 ethanolamine/methyl cellusolve) and the tubes were changed every 15 minutes for 90 minutes. At 90 minutes, the birds were removed from the metabolism cages and blood was obtained via cardiac puncture. Birds were then sacrificed by cervical dislocation and the muscles were removed, weighed, frozen in liquid N2 and stored at -20° C. until analyzed. Radioactivity in the samples containing trapped CO2 was counted for 10 minutes using a liquid scintillation spectrophotometer. At 54 days-of-age, groups of 4 birds per treatment were killed, the muscles were dissected, weighed, and frozen until analyzed.
The right breast muscle, i.e. BM (Pectoralis major) and right leg muscles, i.e. LM (gastrocnemius and peroneus longus) were dissected out from the birds, weighed and immediately frozen in liquid nitrogen and stored at -20° C. until analyzed for tyrosine content as specific radioactivity of tyrosine. All muscle tissues were analyzed for protein content; only tissues from isotope experiments were analyzed for tyrosine content as specific radioactivity of tyrosine.

[5] = Example 1: growth and feed efficiency of broiler cockerels fed thyroid-active substances with or without daily ncGH injection; type: in vivo, broiler cockerels (Ross X Arbor Acre strain)
Excerpt: as §1, §2, §3

[6] = Example 1: plasma hormone concentrations (radioimmunoassays)
Excerpt: as §1, §2, §3

[7] = 0.25 to 1 ppm in feed throughout entire growth cycle; cited from earlier work
[8] = Group 1, dietary, 6 weeks-of-age, N = 8

Q: What does the source list for N[C@@H](Cc1cc(I)c(Oc2ccc(O)c(I)c2)c(I)c1)C(=O)O [T3, 3,3',5-triiodo-L-thyronine]?
A: Body composition: Ash [1, 8]: 2.19 ± .05 % BW; Body composition: Fat [1, 8]: 10.1 ± 1.2 % BW; Body composition: Protein [1, 8]: 18.4 ± .22 % BW; Body composition: Water [1, 8]: 68.6 ± 1.0 % BW; effect on fat deposition ([1]; finishing phase): decreases fat deposition in chickens; body fat content, reduction ([1]; vs CF group): 17%; effect on body protein, water and ash ([1]; vs CF group): body protein and water were slightly increased; ADFC ([2]; 1 ppm T3 and/or ncGH 100 μg/kg/day, 21 days): 117.9 ± 0.8 g/bird/day; ADG ([2]; 1 ppm T3 in feed and/or ncGH 100 μg/kg/day i.m., 3 to 6 weeks, mean ±SEM of 3 pens): 52.6 ± 1.0 g/bird/day; effect on ADG, ADFC and FTG ratio ([2]; 21 days): not affected; depressed growth rate in dwarf strains [3]: restored to normal; relative weights of liver (RLW), right breast muscle (RBM), right leg muscle (RLM) ([4]; 0, 0.25, 1 and 4 ppm): not different among treatments; abdominal fat weight, reduction ([4]; 0.25 ppm): 22.2% and > 20% and 22%; effect on final body weight ([4]; 0.25 ppm): no significant adverse effect in final body weight; also recorded: do not appear to have a statistically significant effect upon final body weight; BW (final body weight) ([4]; 0.25 ppm of feed): 2.42 kg; RBM (right breast muscle) ([4]; 0.25 ppm of feed): 5.60 % BW; RLM (right leg muscle) ([4]; 0.25 ppm of feed): 0.71 % BW; RLW (relative liver weight) ([4]; 0.25 ppm of feed): 2.24 % BW; effect on final body weight ([4]; 1.0 ppm): significant sacrifice of final body weight; abdominal fat weight, reduction ([4]; 1.0 ppm (p<0.05)): 26.6%; Abdom. Fat ([4]; 1.0 ppm of feed): 1.88 % BW; BW (final body weight) ([4]; 1.0 ppm of feed): 2.33 kg; RBM (right breast muscle) ([4]; 1.0 ppm of feed): 5.36 % BW; RLM (right leg muscle) ([4]; 1.0 ppm of feed): 0.76 % BW; RLW (relative liver weight) ([4]; 1.0 ppm of feed): 2.14 % BW; effect on final body weight ([4]; 4.0 ppm): excessive loss of final body weight; abdominal fat weight, reduction ([4]; 4.0 ppm (p<0.05)): 63.3%; final body weight, reduction ([4]; 4.0 ppm (p<0.05)): 22.2%; Abdom. Fat ([4]; 4.0 ppm of feed): 0.94 % BW; BW (final body weight) ([4]; 4.0 ppm of feed): 1.99 kg; RBM (right breast muscle) ([4]; 4.0 ppm of feed): 5.81 % BW; RLM (right leg muscle) ([4]; 4.0 ppm of feed): 0.75 % BW; RLW (relative liver weight) ([4]; 4.0 ppm of feed): 2.18 % BW; BW (body weight) ([5]; 1 ppm T3, 1 ppm T4, 5 ppm TRH or 0.5% PTU in feed, 3 to 6 weeks of age, Group 1, mean ±SEM): 1.70 ± .09 kg; effect on growth rate and feed efficiency ([5]; Group 1, dietary): did not affect growth rate or feed efficiency; ADFC (average daily feed consumption) ([5]; Group 1, dietary, 21 days): 101.1 ± 5.2 g/bird/day; ADG (average daily weight gain) ([5]; Group 1, dietary, 21 days): 48.8 ± 4.3 g/bird/day; FTG (feed-to-gain ratio) ([5]; Group 1, dietary, 21 days): 2.08 ± .08 kg feed/kg gain; I/G Molar Ratio ([6]; Group 1, dietary, N = 24): 0.51; plasma Glucagon (G) ([6]; Group 1, dietary, N = 24): 491 pg/mL; plasma Insulin (I) ([6]; Group 1, dietary, N = 24): 409 pg/mL; effect on insulin and glucagon secretion ([6]; dietary T3 / elevated plasma T3): inhibit insulin secretion whereas glucagon secretion is enhanced; also recorded: depresses insulin secretion while glucagon secretion is increased; plasma I/G molar ratio, fold lower ([6]; vs CF birds (P<0.05)): 4.3 times; plasma GH level, reduction ([6]; vs CF treatment): 32%; plasma T4 level, reduction ([6]; vs average of CF and TRH treatments (P<0.05)): 58%; body weight gain, feed efficiency / growth performance [7]: reduced body weight gain and feed efficiency
